Assay [1] addresses T1, ERK5 (Homo sapiens, UniProt Q13164).
T1 construct: screened for activity against several kinases in Jurkat cells; endogenous in cells; host or cells: Jurkat cell lysate
Briefly: Probe-based (AX9989 acyl phosphate ATP probe) kinase profiling in Jurkat lysate: ERK5. The conditions noted are these: for IC50: calculated from percent inhibition and screening concentration, Jurkat lysate, AX9989 probe; for inhibition at 1 µM: screening concentration 1 μM; for inhibition at 1 µM / inhibition at 10 µM: read-out: ERK5 Inhibition % at indicated screening concentration; for inhibition at 10 µM: screening concentration 10 μM. Format: binding. A digest of the protocol:
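Gel-filtered Jurkat lysate (5 mg/ml, 20 mM MnCl2) preincubated 15 min at room temperature with compound, then labelled with 5 μM AX9989 acyl phosphate ATP probe. Probe-labelled ERK5 active-site peptides quantified by LC/MS after trypsin digestion and streptavidin capture; IC50 calculated from percent inhibition at the screening concentration.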

For assay [2], the target named is T2, AurA (Homo sapiens, UniProt O14965).
T2 construct: screened for activity against several kinases in Jurkat cells; endogenous in cells; host or cells: Jurkat cell lysate
T2 sequence (O14965 1-403): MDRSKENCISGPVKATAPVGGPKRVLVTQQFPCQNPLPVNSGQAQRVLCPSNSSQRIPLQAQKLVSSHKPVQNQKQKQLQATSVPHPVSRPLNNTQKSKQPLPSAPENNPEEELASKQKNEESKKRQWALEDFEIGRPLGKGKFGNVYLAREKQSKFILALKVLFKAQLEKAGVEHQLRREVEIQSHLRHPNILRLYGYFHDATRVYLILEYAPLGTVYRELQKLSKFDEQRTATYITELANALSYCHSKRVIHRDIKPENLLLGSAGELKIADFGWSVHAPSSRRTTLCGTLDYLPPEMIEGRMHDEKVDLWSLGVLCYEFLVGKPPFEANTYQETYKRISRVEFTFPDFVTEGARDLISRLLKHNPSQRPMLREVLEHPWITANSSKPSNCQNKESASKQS
The assay is described as follows: Probe-based (AX9989) kinase profiling in Jurkat lysate: AurA. It counts as binding. The following applies: read-out: AurA Inhibition % at indicated screening concentration; for inhibition at 1 µM: screening concentration 1 μM; for inhibition at 10 µM: screening concentration 10 μM. Summed up:
(§1)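 Gel-filtered Jurkat lysate (HEPES pH 7.5, 20 mM MnCl2, 5 mg/ml) was pre-incubated 15 min with compound at room temperature, then labelled with 5 μM acyl-phosphate ATP probe AX9989. Tryptic probe-labelled active-site peptides were streptavidin-captured and quantified by LC/MS. Percent inhibition reflected the decrease in labelled-peptide intensity versus no compound.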

Assay [3] relates to AurB or AurC. The assay is described as follows: Probe-based (AX9989) kinase profiling in Jurkat lysate: AurB or AurC. Format: binding. Summed up: as §1
The target in assay [4] is T3, JAK1 (Homo sapiens, UniProt P23458).
T3 construct: screened for activity against several kinases in Jurkat cells; endogenous in cells; host or cells: Jurkat cell lysate
T3 sequence (P23458 whole entry): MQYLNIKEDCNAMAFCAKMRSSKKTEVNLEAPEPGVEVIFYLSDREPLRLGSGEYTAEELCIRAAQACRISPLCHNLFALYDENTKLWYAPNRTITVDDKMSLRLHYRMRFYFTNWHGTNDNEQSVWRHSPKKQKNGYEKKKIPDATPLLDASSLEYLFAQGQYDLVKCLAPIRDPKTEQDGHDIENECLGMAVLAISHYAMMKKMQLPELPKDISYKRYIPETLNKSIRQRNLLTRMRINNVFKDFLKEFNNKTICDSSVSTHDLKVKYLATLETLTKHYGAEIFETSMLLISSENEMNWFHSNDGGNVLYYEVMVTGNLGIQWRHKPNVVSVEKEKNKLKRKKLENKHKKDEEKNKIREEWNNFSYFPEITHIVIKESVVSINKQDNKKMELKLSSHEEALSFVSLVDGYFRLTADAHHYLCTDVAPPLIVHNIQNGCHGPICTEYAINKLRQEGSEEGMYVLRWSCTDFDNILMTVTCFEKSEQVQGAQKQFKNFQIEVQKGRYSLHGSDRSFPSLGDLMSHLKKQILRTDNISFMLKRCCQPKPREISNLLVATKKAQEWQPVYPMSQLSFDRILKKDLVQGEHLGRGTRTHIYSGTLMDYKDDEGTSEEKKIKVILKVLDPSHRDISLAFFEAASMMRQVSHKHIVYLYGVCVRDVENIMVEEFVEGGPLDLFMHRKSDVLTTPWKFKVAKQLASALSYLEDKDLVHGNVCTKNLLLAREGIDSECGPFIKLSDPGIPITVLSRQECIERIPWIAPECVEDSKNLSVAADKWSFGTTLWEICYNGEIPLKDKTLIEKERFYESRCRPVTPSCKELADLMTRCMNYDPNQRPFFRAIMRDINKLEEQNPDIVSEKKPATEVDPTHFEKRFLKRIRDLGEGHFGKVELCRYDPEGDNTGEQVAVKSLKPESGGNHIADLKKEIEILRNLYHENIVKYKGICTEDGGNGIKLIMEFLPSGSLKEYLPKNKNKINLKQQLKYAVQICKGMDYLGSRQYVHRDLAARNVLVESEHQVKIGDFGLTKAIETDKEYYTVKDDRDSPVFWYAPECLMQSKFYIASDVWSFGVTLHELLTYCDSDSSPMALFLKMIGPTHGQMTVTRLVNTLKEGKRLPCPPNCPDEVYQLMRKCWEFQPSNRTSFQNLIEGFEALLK
Briefly: Probe-based (AX9989) kinase profiling in Jurkat lysate: JAK1. Format: binding. The following applies: read-out: JAK1 Inhibition % at indicated screening concentration; for inhibition at 1 µM: screening concentration 1 μM; for inhibition at 10 µM: screening concentration 10 μM. A digest of the protocol: as §1

Assay [5] has as its system AMPKa1 or AMPKa2. Briefly: Probe-based (AX9989) kinase profiling in Jurkat lysate: AMPKa1 or AMPKa2. Format: binding. Summed up:
as §1

The target in assay [6] is T4, TAO2 (Homo sapiens, UniProt Q9UL54).
T4 construct: screened for activity against several kinases in Jurkat cells; endogenous in cells; host or cells: Jurkat cell lysate
T4 sequence (Q9UL54 1-1235): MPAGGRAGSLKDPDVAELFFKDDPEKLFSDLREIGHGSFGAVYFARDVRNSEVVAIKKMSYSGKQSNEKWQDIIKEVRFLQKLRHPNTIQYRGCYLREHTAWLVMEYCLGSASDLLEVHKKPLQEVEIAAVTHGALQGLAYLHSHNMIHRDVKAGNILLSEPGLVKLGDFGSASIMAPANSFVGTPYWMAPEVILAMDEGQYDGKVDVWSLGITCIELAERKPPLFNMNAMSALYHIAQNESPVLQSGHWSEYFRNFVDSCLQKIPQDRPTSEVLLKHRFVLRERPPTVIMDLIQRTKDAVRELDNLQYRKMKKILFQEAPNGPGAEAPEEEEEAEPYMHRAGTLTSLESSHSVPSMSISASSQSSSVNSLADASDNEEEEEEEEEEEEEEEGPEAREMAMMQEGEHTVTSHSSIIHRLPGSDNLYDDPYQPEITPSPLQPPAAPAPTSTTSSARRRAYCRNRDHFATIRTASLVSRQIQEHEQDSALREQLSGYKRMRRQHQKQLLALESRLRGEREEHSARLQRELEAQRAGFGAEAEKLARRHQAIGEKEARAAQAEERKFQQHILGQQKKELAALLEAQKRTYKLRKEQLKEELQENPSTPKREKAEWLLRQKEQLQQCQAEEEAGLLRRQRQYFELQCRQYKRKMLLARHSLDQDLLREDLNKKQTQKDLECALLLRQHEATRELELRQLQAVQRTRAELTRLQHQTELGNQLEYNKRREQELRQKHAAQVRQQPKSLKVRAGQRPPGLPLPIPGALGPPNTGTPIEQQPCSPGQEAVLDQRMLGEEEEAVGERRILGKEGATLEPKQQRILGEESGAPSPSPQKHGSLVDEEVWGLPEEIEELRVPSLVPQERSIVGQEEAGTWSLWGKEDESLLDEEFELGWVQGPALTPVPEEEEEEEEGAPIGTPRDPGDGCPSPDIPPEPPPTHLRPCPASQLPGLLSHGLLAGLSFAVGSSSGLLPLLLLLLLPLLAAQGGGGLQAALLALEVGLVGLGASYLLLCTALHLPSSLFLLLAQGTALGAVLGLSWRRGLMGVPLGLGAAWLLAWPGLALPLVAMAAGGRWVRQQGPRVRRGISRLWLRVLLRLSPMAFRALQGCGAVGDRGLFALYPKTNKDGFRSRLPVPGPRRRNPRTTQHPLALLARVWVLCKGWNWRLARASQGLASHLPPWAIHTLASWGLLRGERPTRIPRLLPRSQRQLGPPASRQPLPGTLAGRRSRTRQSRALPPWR
The assay is described as follows: Probe-based (AX9989) kinase profiling in Jurkat lysate: TAO2. Format: binding. The conditions noted are these: read-out: TAO2 Inhibition % at indicated screening concentration; for inhibition at 1 µM: screening concentration 1 μM; for inhibition at 10 µM: screening concentration 10 μM. Summed up: as §1

Assay [7] has as its target T5, ACK (Homo sapiens, UniProt Q07912).
T5 construct: screened for activity against several kinases in Jurkat cells; endogenous in cells; host or cells: Jurkat cell lysate
The assay is described as follows: Probe-based (AX9989) kinase profiling in Jurkat lysate: ACK. It counts as binding. The following applies: read-out: ACK Inhibition % at indicated screening concentration; for inhibition at 1 µM: screening concentration 1 μM; for inhibition at 10 µM: screening concentration 10 μM. Summed up:
as §1

Assay [8] relates to ABL or ARG. Briefly: Probe-based (AX9989) kinase profiling in Jurkat lysate: ABL or ARG. It counts as binding. Summed up:
as §1

Assay [9] has as its system human PBMCs. The assay is described as follows: Human PBMC TNF-α response to endotoxin (ELISA). Format: cell-based. The following applies: 0.1 μg/ml LPS 16 h, read-out: EC50 for the inhibition of the human PBMC TNF-α response to endotoxin, ave. ± S.D. A digest of the protocol:
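PBMCs at 2e6 cells/ml in RPMI 1640 with 10% charcoal-dextran-treated FBS were pre-treated 1 h at 37 °C with compound (4-point 1:5 dilution from 10 μM). Stimulation with 0.1 μg/ml E. coli 0111:B4 LPS for 16 h; TNF-α measured by ELISA (A450) in 25-fold diluted supernatant.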
In general terms: ELISA stands for enzyme-linked immunosorbent assay.

Where only a bound is given, the exact number is not on record here.

T1 sequence (Q13164 whole entry): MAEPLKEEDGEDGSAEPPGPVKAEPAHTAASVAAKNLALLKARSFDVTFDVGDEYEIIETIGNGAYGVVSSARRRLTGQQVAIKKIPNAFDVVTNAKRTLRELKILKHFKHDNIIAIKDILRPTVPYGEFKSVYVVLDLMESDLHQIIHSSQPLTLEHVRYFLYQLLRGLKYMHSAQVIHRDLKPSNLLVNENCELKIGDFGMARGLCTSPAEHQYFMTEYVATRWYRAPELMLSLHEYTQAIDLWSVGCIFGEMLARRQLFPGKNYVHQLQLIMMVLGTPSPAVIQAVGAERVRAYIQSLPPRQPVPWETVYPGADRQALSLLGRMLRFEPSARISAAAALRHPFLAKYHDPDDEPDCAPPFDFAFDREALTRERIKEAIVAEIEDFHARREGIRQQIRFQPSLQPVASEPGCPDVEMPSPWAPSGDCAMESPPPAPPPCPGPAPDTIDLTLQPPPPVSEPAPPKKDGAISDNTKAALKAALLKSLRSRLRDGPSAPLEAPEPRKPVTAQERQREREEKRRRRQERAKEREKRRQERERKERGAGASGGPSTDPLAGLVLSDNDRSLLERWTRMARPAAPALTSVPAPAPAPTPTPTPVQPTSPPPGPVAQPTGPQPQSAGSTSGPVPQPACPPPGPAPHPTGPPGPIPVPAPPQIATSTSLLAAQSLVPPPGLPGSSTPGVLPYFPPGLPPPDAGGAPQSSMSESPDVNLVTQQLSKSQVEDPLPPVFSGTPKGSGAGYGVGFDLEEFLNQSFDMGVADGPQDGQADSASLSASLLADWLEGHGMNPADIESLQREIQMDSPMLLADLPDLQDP
T5 sequence (Q07912 whole entry): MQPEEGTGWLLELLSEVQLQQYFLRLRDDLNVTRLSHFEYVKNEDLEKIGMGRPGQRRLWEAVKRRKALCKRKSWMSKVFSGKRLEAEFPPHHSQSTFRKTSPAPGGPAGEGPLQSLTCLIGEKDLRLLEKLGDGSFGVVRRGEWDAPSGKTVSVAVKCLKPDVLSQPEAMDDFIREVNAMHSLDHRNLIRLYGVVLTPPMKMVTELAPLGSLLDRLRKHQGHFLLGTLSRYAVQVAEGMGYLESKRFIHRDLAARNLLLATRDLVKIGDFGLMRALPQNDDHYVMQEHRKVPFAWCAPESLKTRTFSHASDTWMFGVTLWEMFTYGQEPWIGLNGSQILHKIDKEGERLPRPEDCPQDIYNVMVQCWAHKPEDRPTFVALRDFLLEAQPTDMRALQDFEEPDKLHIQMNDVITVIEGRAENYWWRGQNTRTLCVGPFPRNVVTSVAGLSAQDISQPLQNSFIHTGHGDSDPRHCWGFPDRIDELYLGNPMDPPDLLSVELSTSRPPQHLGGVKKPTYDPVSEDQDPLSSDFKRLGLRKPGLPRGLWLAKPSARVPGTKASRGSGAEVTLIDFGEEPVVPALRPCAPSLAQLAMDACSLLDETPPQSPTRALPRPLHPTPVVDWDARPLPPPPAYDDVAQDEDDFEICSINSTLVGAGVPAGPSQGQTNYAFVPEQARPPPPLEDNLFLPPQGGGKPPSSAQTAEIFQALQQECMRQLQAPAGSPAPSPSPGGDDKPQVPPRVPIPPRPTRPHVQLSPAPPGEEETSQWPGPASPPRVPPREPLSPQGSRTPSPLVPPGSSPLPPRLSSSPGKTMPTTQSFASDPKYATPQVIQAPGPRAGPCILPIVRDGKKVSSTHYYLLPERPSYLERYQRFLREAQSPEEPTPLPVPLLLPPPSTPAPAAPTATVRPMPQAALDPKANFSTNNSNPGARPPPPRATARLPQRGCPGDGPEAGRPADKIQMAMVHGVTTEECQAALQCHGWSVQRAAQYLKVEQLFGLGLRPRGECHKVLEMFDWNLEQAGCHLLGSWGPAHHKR

In general, IC50 refers to the concentration that gives 50% inhibition. The EC50 is the concentration at which the effect is half-maximal. With `CN1CCN([C@@H]2CCN(C(=O)c3ccc(Nc4cc5c(cn4)N(C)C(=O)c4ccccc4N5C)c(OC(F)F)c3)C2)CC1` [Compound T75], the IC50 in assay [1] is ≤ 0.05 µM. Besides, the inhibition at 1 µM in assay [1] was > 90%; in assay [2], ≤ 35%; in assay [4], ≤ 35%; in [6] it was ≤ 35%; in [7], ≤ 35%. Besides, in [3] (screening concentration 1 μM), the “AurB or AurC Inhibition % at indicated screening concentration” value (from here on “AurB or AurC Inhibition %”) was “E (E is ≦35%)”. Moreover, in assay [5] (screening concentration 1 μM), the “AMPKa1 or AMPKa2 Inhibition % at indicated screening concentration” value (“AMPKa1 or AMPKa2 Inhibition %” below) is “E (E is ≦35%)”. In addition, the “ABL or ARG Inhibition % at indicated screening concentration” value (shortened to “ABL or ARG Inhibition %”) in assay [8] (screening concentration 1 μM) is reported as “E (E is ≦35%)”. In assay [9], the EC50 was found to be 1.55 ± 1.11 µM.

`[2H]C([2H])([2H])N1C(=O)c2ccccc2N(C([2H])([2H])[2H])c2cc(Nc3ccc(C(=O)N4CCN(C(C)=O)CC4)cc3OCC)ncc21` [Compound T77]: the half-maximal inhibitory concentration (IC50) in [1] was 0.05 to 0.1 µM. Moreover, the inhibition at 1 µM was > 90% in [1]; ≤ 35% in [2]; ≤ 35% in assay [4]; ≤ 35% in [6]; ≤ 35% in [7]. In addition, in assay [3] (screening concentration 1 μM), the “AurB or AurC Inhibition %” value is recorded as “E (E is ≦35%)”. Moreover, the “AMPKa1 or AMPKa2 Inhibition %” value in assay [5] (screening concentration 1 μM) was “E (E is ≦35%)”. In assay [8] (screening concentration 1 μM), the “ABL or ARG Inhibition %” value is given as “E (E is ≦35%)”. In assay [9], the EC50 came to 6.33 µM.

As for `CCOc1cc(C(=O)N2CCN(C3CCN(C)CC3)CC2)ccc1Nc1cc2c(cn1)N(C)C(=O)c1ccccc1N2C1CC1` [Compound T79], the IC50 in assay [1] is ≤ 0.05 µM. The inhibition at 1 µM in [1] was > 90%; in assay [2], ≤ 35%; in assay [4], ≤ 35%; in assay [6], ≤ 35%; in [7] it was ≤ 35%. In assay [3] (screening concentration 1 μM), the “AurB or AurC Inhibition %” value is recorded as “E (E is ≦35%)”. Moreover, the “AMPKa1 or AMPKa2 Inhibition %” value in assay [5] (screening concentration 1 μM) is recorded as “E (E is ≦35%)”. For the same molecule, the “ABL or ARG Inhibition %” value in [8] (screening concentration 1 μM) is given as “E (E is ≦35%)”. Further, the EC50 in [9] worked out at 7.2 µM.

For the molecule `CCOc1cc(C(=O)N2CCN(C3CCN(C)CC3)CC2)ccc1Nc1cc2c(cn1)N(C)C(=N)c1ccccc1N2C` [Compound T80], the IC50 in assay [1] was > 0.5 µM. The inhibition at 10 µM in assay [1], in assay [2], in [4], in assay [6] and in assay [7] was ≤ 35% each time. Moreover, the “AurB or AurC Inhibition %” value in assay [3] (screening concentration 10 μM) is “E (E is ≦35%)”. The “AMPKa1 or AMPKa2 Inhibition %” value in assay [5] (screening concentration 10 μM) was “E (E is ≦35%)”. Moreover, in assay [8] (screening concentration 10 μM), the “ABL or ARG Inhibition %” value is on record as “E (E is ≦35%)”. Further, the 50% effective concentration (EC50) in assay [9] is > 15 µM.

Take `CCOc1cc(C(=O)N2CCC(N3CCN(C)CC3)CC2)ccc1Nc1cc2c(cn1)N(C)C(=O)c1ccccc1N2S(C)(=O)=O` [Compound T85]: the IC50 in [1] is > 0.5 µM. Further, the inhibition at 1 µM in assay [1], in assay [2], in assay [4], in assay [6] and in assay [7] was ≤ 35% throughout. Further, the “AurB or AurC Inhibition %” value in [3] (screening concentration 1 μM) is on record as “E (E is ≦35%)”. For the same molecule, the “AMPKa1 or AMPKa2 Inhibition %” value in assay [5] (screening concentration 1 μM) was “E (E is ≦35%)”. The “ABL or ARG Inhibition %” value in assay [8] (screening concentration 1 μM) was “E (E is ≦35%)”. In addition, in assay [9], the EC50 was > 15 µM.

Consider `CN1C(=O)c2ccccc2N(C)c2cc(N[C@H]3C[C@H](O)C3)ncc21` [Compound T88], for which the half-inhibitory concentration (IC50) in [1] is > 0.5 µM. Also, the inhibition at 10 µM in assay [1] is 75 to 90%; in [2], 50 to 75%; in assay [4] it was ≤ 35%; in [6], 35 to 50%; in [7] it was ≤ 35%. In assay [3] (screening concentration 10 μM), the “AurB or AurC Inhibition %” value was “B (B is >75% to ≦90%)”. The “AMPKa1 or AMPKa2 Inhibition %” value in assay [5] (screening concentration 10 μM) was “E (E is ≦35%)”. The “ABL or ARG Inhibition %” value in [8] (screening concentration 10 μM) is given as “E (E is ≦35%)”. Also, the 50% effective concentration (EC50) in assay [9] was 2.53 µM.

`CCOc1cc(C(=O)N2CCN(C3CCN(C)CC3)CC2)ccc1Nc1cc2c(cn1)N(C)C(=O)c1ccccc1[S+]2[O-]` (stereo not shown) [Compound T100]: the half-maximal inhibitory concentration (IC50) in [1] is > 0.5 µM. Besides, the inhibition at 10 µM in [1] was 75 to 90%; in assay [2], ≤ 35%; in [4], ≤ 35%; in assay [6] it was ≤ 35%; in assay [7], ≤ 35%. The “AurB or AurC Inhibition %” value in [3] (screening concentration 10 μM) is “E (E is ≦35%)”. Further, the “AMPKa1 or AMPKa2 Inhibition %” value in assay [5] (screening concentration 10 μM) is reported as “E (E is ≦35%)”. In addition, the “ABL or ARG Inhibition %” value in [8] (screening concentration 10 μM) is “E (E is ≦35%)”. The 50% effective concentration (EC50) in assay [9] was > 15 µM.

Source of the values: patent US20170008888A1 (KYORIN PHARMACEUTICAL CO., LTD., priority 2014, published 2017).
